The compounds below were run against recombinant Mcl-1 (residues 172-327) (Homo sapiens (Human), UniProt Q07820) (assay: Bak peptide fluorescence polarization anisotropy competition assay, Mcl-1). Conditions: Table 2, Ki range; FITC-Bak peptide 10 nM, Mcl-1 14 nM; read-out: Ki for inhibition of Mcl-1.
recombinant Mcl-1 (residues 172-327), sequence (Q07820 172-327): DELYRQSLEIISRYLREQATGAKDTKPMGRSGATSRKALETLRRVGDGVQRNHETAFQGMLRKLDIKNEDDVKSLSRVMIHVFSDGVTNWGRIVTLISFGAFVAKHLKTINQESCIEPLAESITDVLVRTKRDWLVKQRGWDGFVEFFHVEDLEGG
Type: binding
For `Cc1cc(OCCCc2c(C(=O)NS(=O)(=O)c3ccc(C(=O)O)n3C)[nH]c3cc(Cl)ccc23)cc(C)c1Cl` [Example 266, 5-(N-(6-chloro-3-(3-(4-chloro-3,5-dimethylphenoxy)propyl)-1H-indole-2-carbonyl)sulfamoyl)-1-methyl-1H-pyrrole-2-carboxylic acid], the Ki was ≤ 100 nM.
For `Cc1cc(OCCCc2c(C(=O)NS(=O)(=O)c3ccccc3)[nH]c3c(-c4ccnn4C)cccc23)cc(C)c1Cl` [Example 100, 3-(3-(4-chloro-3,5-dimethylphenoxy)propyl)-7-(1-methyl-1H-pyrazol-5-yl)-N-(phenylsulfonyl)-1H-indole-2-carboxamide], the Ki was ≤ 100 nM.
In the case of `Cc1cc(OCCCc2c(C(=O)NS(=O)(=O)CCNC(=O)c3ccco3)[nH]c3cc(Cl)ccc23)cc(C)c1Cl` [Example 232, 6-chloro-3-(3-(4-chloro-3,5-dimethylphenoxy)propyl)-N-((2-(furan-2-carboxamido)ethyl)sulfonyl)-1H-indole-2-carboxamide], the Ki is reported as ≤ 100 nM.
For `Cc1cc(OCCCc2c(C(=O)NS(=O)(=O)c3ccccc3)[nH]c3c(-c4cnn(C)c4)cccc23)cc(C)c1Cl` [Example 123, 3-(3-(4-chloro-3,5-dimethylphenoxy)propyl)-7-(1-methyl-1H-pyrazol-4-yl)-N-(phenylsulfonyl)-1H-indole-2-carboxamide], the Ki was ≤ 100 nM.
In the case of `Cc1cc(OCCCc2c(C(=O)NS(C)(=O)=O)[nH]c3cccc(Cl)c23)ccc1Cl` [Example 50, 4-chloro-3-(3-(4-chloro-3-methylphenoxy)propyl)-N-(methylsulfonyl)-1H-indole-2-carboxamide], the Ki is reported as ≤ 100 nM.

Same assay, conditions: read-out: Ki for inhibition of Mcl-1
For `CS(=O)(=O)NC(=O)c1[nH]c2cc(Cl)ccc2c1CCCOc1ccc(Cl)c2ccccc12` [Example 76, 6-chloro-3-(3-((4-chloronaphthalen-1-yl)oxy)propyl)-N-(methylsulfonyl)-1H-indole-2-carboxamide], the Ki was 301 to 500 nM.
`Cc1cccc(OCCCc2c(C(=O)NS(C)(=O)=O)[nH]c3ccccc23)c1` [Example 31, N-(methylsulfonyl)-3-(3-(m-tolyloxy)propyl)-1H-indole-2-carboxamide] showed a Ki of 10000 to 50000 nM.
`CS(=O)(=O)NC(=O)c1[nH]c2ccccc2c1CCCOc1cccc2ccccc12` [Example 19, N-(methylsulfonyl)-3-(3-(naphthalen-1-yloxy)propyl)-1H-indole-2-carboxamide] showed a Ki of 1000 to 9990 nM.
Compound `CS(=O)(=O)NC(=O)c1[nH]c2cc(Cl)ccc2c1CCCOc1cccc2c1CCCC2` [Example 75, 6-chloro-N-(methylsulfonyl)-3-(3-((5,6,7,8-tetrahydronaphthalen-1-yl)oxy)propyl)-1H-indole-2-carboxamide] has a Ki of 501 to 999 nM.
For `Cc1cc(OCCCc2c(C(=O)NS(=O)(=O)CCN(C/C=C/c3ccccc3)C/C=C/c3ccccc3)[nH]c3ccccc23)cc(C)c1Cl` [Example 203, 3-(3-(4-chloro-3,5-dimethylphenoxy)propyl)-N-((2-(dicinnamylamino)ethyl)sulfonyl)-1H-indole-2-carboxamide], the Ki was 301 to 500 nM.
Work on `Cc1cc(OCCCc2c(C(=O)NS(=O)(=O)CCNC(=O)C(F)(F)F)[nH]c3cc(Cl)ccc23)cc(C)c1Cl` [Example 254, 6-chloro-3-(3-(4-chloro-3,5-dimethylphenoxy)propyl)-N-((2-(2,2,2-trifluoroacetamido)ethyl)sulfonyl)-1H-indole-2-carboxamide] yielded a Ki of 101 to 299 nM.
Work on `Cc1cc(OCCCc2c(C(=O)NS(=O)(=O)CCNS(=O)(=O)C3CCCCC3)[nH]c3ccccc23)cc(C)c1Cl` [Example 149, 3-(3-(4-chloro-3,5-dimethylphenoxy)propyl)-N-((2-(cyclohexanesulfonamido)ethyl)sulfonyl)-1H-indole-2-carboxamide] yielded a Ki of 101 to 299 nM.
In the case of `Cc1cc(OCCCc2c(C(=O)NS(=O)(=O)CCNC(=O)c3ccccc3F)[nH]c3ccccc23)cc(C)c1Cl` [Example 160, 3-(3-(4-chloro-3,5-dimethylphenoxy)propyl)-N-((2-(2-fluorobenzamido)ethyl)sulfonyl)-1H-indole-2-carboxamide], the Ki is reported as 301 to 500 nM.
`Cc1cc(OCCCc2c(C(=O)NS(=O)(=O)CCNC(=O)c3cccnc3)[nH]c3ccccc23)cc(C)c1Cl` [Example 155, 3-(3-(4-chloro-3,5-dimethylphenoxy)propyl)-N-((2-(nicotinamido)ethyl)sulfonyl)-1H-indole-2-carboxamide] gave a Ki of 1000 to 9990 nM.
`Cc1cc(OCCCc2c(C(=O)NS(=O)(=O)c3ccccc3)[nH]c3c(-c4ccncc4)cccc23)cc(C)c1Cl` [Example 94, 3-(3-(4-chloro-3,5-dimethylphenoxy)propyl)-N-(phenylsulfonyl)-7-(pyridin-4-yl)-1H-indole-2-carboxamide] gave a Ki of 101 to 299 nM.
For `O=C(O)c1sc2ccccc2c1CCCc1cccc2ccccc12` [Example 63, 3-(3-(naphthalen-1-yl)propyl)benzo[b]thiophene-2-carboxylic acid], the Ki was 1000 to 9990 nM.
Compound `Cc1cc(OCCCc2c(C(=O)NS(=O)(=O)CCCNC(=O)c3cccn3Cc3ccccc3)[nH]c3cc(Cl)ccc23)cc(C)c1Cl` [Example 258, N-((3-(1-benzyl-1H-pyrrole-2-carboxamido)propyl)sulfonyl)-6-chloro-3-(3-(4-chloro-3,5-dimethylphenoxy)propyl)-1H-indole-2-carboxamide] has a Ki of 101 to 299 nM.
With `CS(=O)(=O)NC(=O)c1[nH]c2ccc(Cl)cc2c1CCCOc1cccc2ccccc12` [Example 111, 5-chloro-N-(methylsulfonyl)-3-(3-(naphthalen-1-yloxy)propyl)-1H-indole-2-carboxamide] the Ki was 1000 to 9990 nM.
Work on `Cc1cc(OCCCc2c(C(=O)NS(=O)(=O)CCCNC3CCCCC3)[nH]c3ccccc23)cc(C)c1Cl` [Example 145, 3-(3-(4-chloro-3,5-dimethylphenoxy)propyl)-N-((3-(cyclohexylamino)propyl)sulfonyl)-1H-indole-2-carboxamide] yielded a Ki of 1000 to 9990 nM.
`O=C(O)c1oc2ccccc2c1CCc1cccc2ccccc12` [Example 23, 3-(2-(naphthalen-1-yl)ethyl)benzofuran-2-carboxylic acid] was tested, and the Ki was 10000 to 50000 nM.
`Cc1cc(OCCCc2c(C(=O)NS(=O)(=O)CCNC(=O)c3ccn[nH]3)[nH]c3ccccc23)cc(C)c1Cl` [Example 181, N-((2-(1H-pyrazole-5-carboxamido)ethyl)sulfonyl)-3-(3-(4-chloro-3,5-dimethylphenoxy)propyl)-1H-indole-2-carboxamide] showed a Ki of 1000 to 9990 nM.
`Cc1cc(OCCCc2c(C(=O)NS(=O)(=O)CC3CCN(C(=O)OCc4ccccc4)CC3)[nH]c3cc(Cl)ccc23)cc(C)c1Cl` [Example 209, benzyl 4-((N-(6-chloro-3-(3-(4-chloro-3,5-dimethylphenoxy)propyl)-1H-indole-2-carbonyl)sulfamoyl)methyl)piperidine-1-carboxylate] gave a Ki of 301 to 500 nM.
For `Cc1ccc(OCCCc2c(C(=O)NS(C)(=O)=O)[nH]c3ccccc23)cc1` [Example 33, N-(methylsulfonyl)-3-(3-(p-tolyloxy)propyl)-1H-indole-2-carboxamide], the Ki was 10000 to 50000 nM.
`O=C(NS(=O)(=O)C(F)(F)F)c1cc2ccccc2n1CCCOc1cccc2ccccc12` [Example 15, 1-(3-(naphthalen-1-yloxy)propyl)-N-((trifluoromethyl)sulfonyl)-1H-indole-2-carboxamide] was tested, and the Ki was 501 to 999 nM.
`Cc1cc(OCCCc2c(C(=O)NS(=O)(=O)CCNC(=O)[C@@H]3Cc4ccccc4N3C)[nH]c3cc(Cl)ccc23)cc(C)c1Cl` [Example 238, (S)-6-chloro-3-(3-(4-chloro-3,5-dimethylphenoxy)propyl)-N-((2-(1-methylindoline-2-carboxamido)ethyl)sulfonyl)-1H-indole-2-carboxamide] gave a Ki of 101 to 299 nM.
